Laboratory results published in patent US7666901B2, “Analogs of 17-hydroxywortmannin as PI3K inhibitors” (Wyeth, priority 2004, dated 2010).
pIC50: −log10 of the molar value. Converted amounts (≈) assume the structure as drawn.

What was measured:
PI3K = test system: T1, PI3K; test: Fluorescence polarization assay for PI3K; format: biochemical; details: for pIC50: Table 2
T1 construct: PI3K FP IC50
Protocol: This assay is used to determine the IC50 of compounds of the present invention as it identifies inhibitors of PI3 kinase by measuring inhibition.
The assay is run by placing 5 μL of diluted enzyme per well, then 5 μL of diluted compound (or 9.5 μL enzyme then 0.5 μL compound in DMSO) is added and mixed. Then, 10 μL substrate is added to start the reaction. The samples are incubated 30-60 minutes, then the reaction is stopped by adding 20 μL stop/detector mix.
PI3K is diluted with reaction buffer (e.g., 5 μL or 7.5 μL PI3K into 620 μL reaction buffer), and 5 μL of diluted enzyme is used per well. 5 μL reaction buffer or drug diluted in buffer (e.g., 4 μL/100 so final DMSO is 1% in reaction) is added to each. The samples are mixed by pipetting up and down. Alternatively, the enzyme can be diluted to 1215 μL. In this case 9.8 μL is added per well and 0.2 μL compound is added in DMSO.
To prepare 1 mL of substrate solution, 955 μL reaction buffer, 40 μL PIP2, and 2.5 μL ATP are mixed. 10 μL of substrate is added to each well to start the reaction.
Stop/detector mix is prepared by mixing 4 μL Red detector and 1.6 μL or 2.0 μL GST-GRP with 1 mL Stop buffer, which results in 10 nM probe and 70 nM GST-GRP). 20 μL of the stop/detector mix is added to each well to stop the reaction. The plates are read after 30-90 minutes keeping the red probe solutions dark.
For the zero time point, stop/detector mix is added to the enzyme just before adding substrate. For an extra control, stop/detector mix is added to buffer (no enzyme) and substrate or to just buffer (no substrate).
The recommended reaction has 0.06 μL per 20 μL (0.015 μg/20 μL) or 0.01125 μg/15 μL or 0.75 μg/mL.
Plates are read on machines with filters for Tamra. The units are mP with no enzyme controls reading app 190-220 mP units. Fully active enzyme reduces fluorescence polarization down to 70-100 mP after 30 minutes. An active cpd raises the mP values halfway to control or to 120-150 mP units.

[1] = test system: DU145 (human prostate carcinoma/lymphocytic leukemia); test: Cell proliferation (MTS) assay, DU145; format: cell-based; details: three days treatment; for IC50: Homo sapiens, DU-145, 72 h
Method in brief: (§1)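 Cells plated at about 3000 per well in RPMI-1640/10% FBS were dosed with compound one day later. Viability was read by MTS conversion (absorbance 490 nm, 1–2 h) three days after treatment began. Effect is expressed as percent of vehicle-treated growth on the same plate.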

[2] = test system: LNCaP (human prostate carcinoma); test: Cell proliferation (MTS) assay, LNCaP; format: cell-based; details: three days treatment; for IC50: Homo sapiens, LNCaP, 72 h
Method in brief: as §1

[3] = test system: MDA435 (human breast adenocarcinoma); test: Cell proliferation (MTS) assay, MDA435; format: cell-based; details: three days treatment; for IC50: Homo sapiens, MDA435, 72 h
Method in brief: as §1

[4] = test system: MDA468 (human breast cancer cell); test: Cell proliferation (MTS) assay, MDA468; format: cell-based; details: three days treatment; for IC50: Homo sapiens, 72 h
Method in brief: as §1

Human TOR = target: T2, Human TOR (Homo sapiens, UniProt P42345); test: Human TOR (mTOR) kinase assay, DELFIA format; format: biochemical; details: for pIC50: Table 2
T2 construct: FLAG
Method in brief: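 Purified FLAG-TOR (800 ng/mL) phosphorylates His6-S6K ([…]) with […] ATP in Hepes pH 7.4 buffer containing MnCl2, 2 h at room temperature. Phospho-Thr389 S6K detected by DELFIA using Europium-labelled anti-P(T389)-p70S6K antibody; enzyme inhibition calculated from signal.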

[5] = test system: phosphor-AKT (S473) in Rat1 cells; test: Rat1-IGF1 assay (IGF-1 induced phospho-AKT immunoblot); format: cell-based, rat; details: for IC50: Rattus norvegicus
Protocol: Rat1 cells are plated in 6-well culture plates and serum-starved for 24 hours. Serum-starved cells are treated either with control vehicle or with various concentrations of 17-HWT for 2 hours, stimulated by IGF-1 (100 ng/mL) for 30 minutes. Total cellular lysates are prepared using NuPAGE-LDS sample buffer (Invitrogen), sonicated and then clarified by centrifugation. Equal amounts of proteins are subject to immunoblotting analysis using NuPAGE electrophoresis system and probed with phosphor-AKT (S473), total AKT antibodies (Signaling Technology).

Row | Compound | IC50 ([1]; Table 2) | IC50 ([2]; Table 2) | IC50 ([3]; Table 2) | IC50 ([4]; Table 2) | IC50 ([5]; Table 2) | PI3K FP IC50 (PI3K; Table 1) | DU145 IC50 ([1]; Table 1) | LNCaP IC50 ([2]; Table 1) | MDA435 IC50 ([3]; Table 1) | MDA468 IC50 ([4]; Table 1) | TOR IC50 (Human TOR; Table 1) | Rat1-IGF1 IC50 ([5]; Table 1) | pIC50 (PI3K) | pIC50 (Human TOR) | DU145 IC50 ([1]; Table 2) | LNCaP IC50 ([2]; Table 2) | MDA435 IC50 ([3]; Table 2) | MDA468 IC50 ([4]; Table 2) | Rat1-IGF1 IC50 ([5]; Table 2)
1 | COCC1OC(=O)C(=CN(C)CCCC(=O)O)C2=C(O)C(=O)C3=C(C(OC(C)=O)CC4(C)C(O)CCC34)C21C (centres unmarked) [Compound 37, 4-[(11-Acetoxy-6,17-dihydroxy-1-methoxymethyl-10,13-dimethyl-3,7-dioxo-1,7,10,11,12,13,14,15,16,17-decahydro-2-oxa-cyclopenta[a]phenanthren-4-ylidenemethyl)-methyl-amino]-butyric acid] | 21 µg/mL (≈ 38.3 µM) | 0.2 µg/mL (≈ 0.365 µM) | 12 µg/mL (≈ 21.9 µM) | 4 µg/mL (≈ 7.3 µM) | 0.1 µg/mL (≈ 0.183 µM) |  |  |  |  |  |  |  | 6.71 | 4.90 |  |  |  |  | 
2 | COCC1OC(=O)C(=CN2CCCC2C(=O)OC)C2=C(O)C(=O)C3=C(C(OC(C)=O)CC4(C)C(O)CCC34)C21C (centres unmarked) [Compound 40, 1-(11-Acetoxy-6,17-dihydroxy-1-methoxymethyl-10,13-dimethyl-3,7-dioxo-1,7,10,11,12,13,14,15,16,17-decahydro-2-oxa-cyclopenta[a]phenanthren-4-ylidenemethyl)-pyrrolidine-2-carboxylic acid methyl ester] |  |  |  |  |  |  |  |  |  |  |  |  | 6.35 | < 4.75 | 1.85 µg/mL | 0.085 µg/mL | 5.5 µg/mL | 0.75 µg/mL | >0.1(hint) μg/ml
3 | COCC1OC(=O)C(=CN2CCCC2C(=O)OC)C2=C(O)C(=O)C3=C(C(OC(C)=O)CC4(C)C(O)CCC34)C21C (centres unmarked) [Compound 39, 1-(11-Acetoxy-6,17-dihydroxy-1-methoxymethyl-10,13-dimethyl-3,7-dioxo-1,7,10,11,12,13,14,15,16,17-decahydro-2-oxa-cyclopenta[a]phenanthren-4-ylidenemethyl)-pyrrolidine-2-carboxylic acid methyl ester] | 2.4 µg/mL (≈ 4.29 µM) | 0.043 µg/mL (≈ 0.0768 µM) | 4 µg/mL (≈ 7.15 µM) | 1.2 µg/mL (≈ 2.14 µM) | 0.1 µg/mL (≈ 0.179 µM) |  |  |  |  |  |  |  | 6.11 | 4.91 |  |  |  |  | 
4 | COCC1OC(=O)C(=CN2CCC(C(=O)O)CC2)C2=C(O)C(=O)C3=C(C(OC(C)=O)CC4(C)C(O)CCC34)C21C (centres unmarked) [Compound 23, 1-(11-Acetoxy-6,17-dihydroxy-1-methoxymethyl-10,13-dimethyl-3,7-dioxo-1,7,10,11,12,13,14,15,16,17-decahydro-2-oxa-cyclopenta[a]phenanthren-4-ylidenemethyl)-piperidine-4-carboxylic acid] | 17 µg/mL (≈ 30.4 µM) | 0.28 µg/mL (≈ 0.5 µM) | 17 µg/mL (≈ 30.4 µM) | 4 µg/mL (≈ 7.15 µM) | 0.1 µg/mL (≈ 0.179 µM) |  |  |  |  |  |  |  | 7.48 | 6.09 |  |  |  |  | 
5 | COCC1OC(=O)C(=CN(C)C(C=C(C)C(=O)OC)C(C)C)C2=C(O)C(=O)C3=C(C(OC(C)=O)CC4(C)C(O)CCC34)C21C (centres unmarked) [Compound 24, 4-[(11-Acetoxy-6,17-dihydroxy-1-methoxymethyl-10,13-dimethyl-3,7-dioxo-1,7,10,11,12,13,14,15,16,17-decahydro-2-oxa-cyclopenta[a]phenanthren-4-ylidenemethyl)-methyl-amino]-2,5-dimethyl-hex-2-enoic acid methyl ester] | 4 µg/mL (≈ 6.5 µM) | 0.13 µg/mL (≈ 0.211 µM) | 10.1 µg/mL (≈ 16.3 µM) | 1.05 µg/mL (≈ 1.71 µM) | > 0.1 µg/mL |  |  |  |  |  |  |  | 5.27 | < 4.79 |  |  |  |  | 

Now from value to compound, other results behind:

Row | IC50 ([1]; Table 2) | IC50 ([2]; Table 2) | IC50 ([3]; Table 2) | IC50 ([4]; Table 2) | IC50 ([5]; Table 2) | PI3K FP IC50 (PI3K; Table 1) | DU145 IC50 ([1]; Table 1) | LNCaP IC50 ([2]; Table 1) | MDA435 IC50 ([3]; Table 1) | MDA468 IC50 ([4]; Table 1) | TOR IC50 (Human TOR; Table 1) | Rat1-IGF1 IC50 ([5]; Table 1) | Compound | pIC50 (PI3K) | pIC50 (Human TOR) | DU145 IC50 ([1]; Table 2) | LNCaP IC50 ([2]; Table 2) | MDA435 IC50 ([3]; Table 2) | MDA468 IC50 ([4]; Table 2) | Rat1-IGF1 IC50 ([5]; Table 2)
6 | 8.5 µg/mL (≈ 11.7 µM) | 0.12 µg/mL (≈ 0.165 µM) | 11 µg/mL (≈ 15.1 µM) | 3 µg/mL (≈ 4.12 µM) | > 0.1 µg/mL |  |  |  |  |  |  |  | CCN(CC)CCCN(C=C1C(=O)OC(COC)C2(C)C1=C(O)C(=O)C1=C2C(OC(C)=O)CC2(C)C(O)CCC12)CCS(=O)(=O)c1ccccc1 (centres unmarked) [Compound 28, Acetic acid 4-{[(2-benzenesulfonyl-ethyl)-(3-diethylamino-propyl)-amino]-methylene}-6,17-dihydroxy-1-methoxymethyl-10,13-dimethyl-3,7-dioxo-1,3,4,7,10,11,12,13,14,15,16,17-dodecahydro-2-oxa-cyclopenta[a]phenanthren-11-yl ester] | 6.88 | < 4.86 |  |  |  |  | 
7 | 12 µg/mL (≈ 22.4 µM) | 0.09 µg/mL (≈ 0.168 µM) | 5 µg/mL (≈ 9.34 µM) | 2.3 µg/mL (≈ 4.29 µM) | 0.1 µg/mL (≈ 0.187 µM) |  |  |  |  |  |  |  | COCC1OC(=O)C(=CN(C)CC(O)CO)C2=C(O)C(=O)C3=C(C(OC(C)=O)CC4(C)C(O)CCC34)C21C (centres unmarked) [Compound 36, Acetic acid 4-{[(2,3-dihydroxy-propyl)-methyl-amino]-methylene}-6,17-dihydroxy-1-methoxymethyl-10,13-dimethyl-3,7-dioxo-1,3,4,7,10,11,12,13,14,15,16,17-dodecahydro-2-oxa-cyclopenta[a]phenanthren-11-yl ester] | 6.70 | 5.52 |  |  |  |  | 
8 | 20 µg/mL (≈ 33.2 µM) | 0.5 µg/mL (≈ 0.831 µM) | 22 µg/mL (≈ 36.6 µM) | 4.1 µg/mL (≈ 6.81 µM) | 0.1 µg/mL (≈ 0.166 µM) |  |  |  |  |  |  |  | COCC1OC(=O)C(=CN2CCN(CCCN(C)C)CC2)C2=C(O)C(=O)C3=C(C(OC(C)=O)CC4(C)C(O)CCC34)C21C (centres unmarked) [Compound 32, Acetic acid 4-[4-(3-dimethylamino-propyl)-piperazin-1-ylmethylene]-6,17-dihydroxy-1-methoxymethyl-10,13-dimethyl-3,7-dioxo-1,3,4,7,10,11,12,13,14,15,16,17-dodecahydro-2-oxa-cyclopenta[a]phenanthren-11-yl ester] | 7.41 | 6.60 |  |  |  |  | 
9 | 1.1 µg/mL (≈ 2.13 µM) | 0.06 µg/mL (≈ 0.116 µM) | 5 µg/mL (≈ 9.66 µM) | 0.62 µg/mL (≈ 1.2 µM) | > 0.1 µg/mL |  |  |  |  |  |  |  | COCC1OC(=O)C(=CN(C)C(C)(C)C)C2=C(O)C(=O)C3=C(C(OC(C)=O)CC4(C)C(O)CCC34)C21C (centres unmarked) [Compound 20, Acetic acid 4-[(tert-butyl-methyl-amino)-methylene]-6,17-dihydroxy-1-methoxymethyl-10,13-dimethyl-3,7-dioxo-1,3,4,7,10,11,12,13,14,15,16,17-dodecahydro-2-oxa-cyclopenta[a]phenanthren-11-yl ester] | 6.36 | < 4.71 |  |  |  |  | 
10 |  |  |  |  |  | 0.07 µg/mL | 13 µg/mL | 0.55 µg/mL | >15 µg/mL | 2.01 µg/mL | 0.66 µg/mL | 0.02 µg/mL | (1E,4S,4aR,5R,6aS,7S)-7,11-dihydroxy-4-(methoxymethyl)-4a,6a-dimethyl-1-{[methyl(1-methylpyrrolidin-3-yl)amino]methylene}-2,10-dioxo-1,2,4,4a,5,6,6a,7,8,9,9a,10-dodecahydroindeno[4,5-h]isochromen-5-yl acetate [Compound 6] |  |  |  |  |  |  | 
11 | 25 µg/mL (≈ 40.7 µM) | 0.48 µg/mL (≈ 0.782 µM) | 22 µg/mL (≈ 35.8 µM) | 6 µg/mL (≈ 9.78 µM) | 0.1 µg/mL (≈ 0.163 µM) |  |  |  |  |  |  |  | COCC1OC(=O)C(=CN2CCN(C3CCN(C)CC3)CC2)C2=C(O)C(=O)C3=C(C(OC(C)=O)CC4(C)C(O)CCC34)C21C (centres unmarked) [Compound 34, Acetic acid 6,17-dihydroxy-1-methoxymethyl-10,13-dimethyl-4-[4-(1-methyl-piperidin-4-yl)-piperazin-1-ylmethylene]-3,7-dioxo-1,3,4,7,10,11,12,13,14,15,16,17-dodecahydro-2-oxa-cyclopenta[a]phenanthren-11-yl ester] | 7.04 | 6.02 |  |  |  |  | 
